The results in this text go back to the supplement of paper PMC4862054.

Test [1] concerns HDQ-P1. The note with it: 72 h. The procedure, abridged:
(§1)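 Two sequential readouts followed a 72 h incubation of breast cancer cell lines with compound at 5 concentrations in 10-fold steps over a compound-specific 10,000-fold range: CellTox Green fluorescence (485/520 nm) for cell death, then CellTiter-Glo luminescence, after 10 min at room temperature, for viability. Each plate was normalised to 0.1 % DMSO and a positive kill control. Dose-response curves were fitted for EC50, censored at the top concentration.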

Test [2] deals with MDA-MB-468. The settings on record: 72 h. The procedure, abridged: as §1
Test [3] deals with BT-474. The settings on record: 72 h. The procedure, abridged:
as §1

Test [4] has as its system CAL-148. The experiment in a line: normalised viability (% of control), CellTiter-Blue; higher = more viable cells (about 100 = DMSO control). The settings on record: incubation time: 72 h. As for the experimental part:
(§2)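 DSRT, CellTiter-Blue viability, 72 h incubation. Signal is normalised to DMSO and benzethonium chloride controls. Value is the normalised response at dose 9.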

The subject of test [5] is CAL-51. The test is described as above. The settings on record: incubation time: 72 h. As for the experimental part:
as §2

The subject of test [6] is CAL-85-1. The test is described as above. The settings on record: incubation time: 72 h. As for the experimental part:
as §2

Test [7] relates to DU-4475. The description is as above. The settings on record: incubation time: 72 h. On the procedure: as §2
Test [8] concerns HDQ-P1. The description is as above. The settings on record: incubation time: 72 h. On the procedure:
as §2

For test [9], the system named is MDA-MB-453. The test is described as above. The note with it: incubation time: 72 h. As for the experimental part: as §2

Turning to `CC(=O)N(O)CCCCCNC(=O)CCC(=O)N(O)CCCCCNC(=O)CCC(=O)N(O)CCCCCN` [Deferoxamine], the “EC50, CellTiter-Glo” value in test [1] worked out at 1.85 µM; in [2] it was 0.815 µM.

`O=C1CN2Cc3c(ccc(Cl)c3Cl)N=C2N1` [Anagrelide]: the “EC50, CellTiter-Glo” value in test [3] is above 10 µM.

For the compound `Cn1cc(C2=Nc3cc(NC(=O)C(N)C4CCCCC4)cc4c3C2=CNNC4=O)cn1` (configuration not stated), the “EC50, CellTiter-Glo” value in test [3] amounted to 2.29 µM; in [1] it was 9.68 µM; in test [2], 0.396 µM.

Regarding `COc1cc(F)c(F)c(Nc2ccc(I)cc2F)c1NS(=O)(=O)C1(C[C@H](O)CO)CC1` [Refametinib], the “EC50, CellTiter-Glo” value in [3] amounted to 0.644 µM; in [1], 0.119 µM; in test [2] it was 2.24 µM.

For the compound `Cn1cnc2c(F)c(Nc3ccc(Br)cc3Cl)c(C(=O)NOCCO)cc21` [Selumetinib], the figures for the “EC50, CellTiter-Glo” value in test [3], in test [1] and in test [2] were 0.361 µM, 0.0448 µM and 5.03 µM, respectively.

`C[C@]1(O)C[C@@H](c2nc(-c3ccc4ccc(-c5ccccc5)nc4c3)c3c(N)nccn32)C1` [Linsitinib]: the “EC50, CellTiter-Glo” value in [3] is 1.09 µM; in [1] it was 1.01 µM; in test [2] it was 4.14 µM.

In the case of `CC1(C)CNc2cc(NC(=O)c3cccnc3NCc3ccncc3)ccc21` [Motesanib], in [2], the “EC50, CellTiter-Glo” value was above 10 µM.

Turning to `CC(=O)O[C@@]12CO[C@@H]1C[C@H](O)[C@@]1(C)C(=O)[C@H](O)C3=C(C)[C@@H](OC(=O)[C@H](O)[C@@H](NC(=O)OC(C)(C)C)c4ccccc4)C[C@@](O)([C@@H](OC(=O)c4ccccc4)[C@H]21)C3(C)C` [Docetaxel], the “EC50, CellTiter-Glo” value in [3] was 0.00747 µM; in test [1], 0.00208 µM; in test [2] it was 0.00068 µM.

For `Nc1nc2[nH]cnc2c(=S)[nH]1` [Thioguanine] (10000 nM), the normalised viability came to 42% in test [4]; 54.2% in test [5]; 61.8% in test [6]; 73.8% in [7]; 58.5% in test [8]; 73.1% in test [9].

As to `Nc1ncn([C@@H]2O[C@H](CO)[C@@H](O)[C@H]2O)c(=O)n1` [Azacitidine], the “EC50, CellTiter-Glo” value in [3] was determined as 2.29 µM; in test [1], 2.47 µM; in [2] it was 0.574 µM.

For `Cc1sc2c(c1C)C(c1ccc(Cl)cc1)=N[C@@H](CC(=O)OC(C)(C)C)c1nnc(C)n1-2` [(+)JQ1], the “EC50, CellTiter-Glo” value in [3] came out at 0.113 µM; in [1], 0.129 µM; in test [2] it was 0.487 µM.

On to `O=NN(CCCl)C(=O)NCCCl` [Carmustine] (10000 nM), for which the normalised viability in test [4] is 109%; in test [5], 98.2%; in [6], 95.6%; in [7], 105%; in test [8], 114%; in [9] it was 115%.

With `CC[C@@H]1C(=O)OC[C@@H]1Cc1cncn1C` [Pilocarpine] (40000 nM), the normalised viability was 73.2% in [4]; 84.5% in [5]; 64.4% in test [6]; 68.7% in [7]; 135% in [8]; 43.7% in test [9].

Regarding `CC(=O)c1c(C)c2cnc(Nc3ccc(N4CCNCC4)cn3)nc2n(C2CCCC2)c1=O` [Palbociclib], the “EC50, CellTiter-Glo” value in [3] worked out at 0.352 µM; in test [2] it was 0.181 µM.

As to `Nc1nc2[nH]cnc2c(=S)[nH]1` [Thioguanine], the figures for the “EC50, CellTiter-Glo” value in test [3], in test [1] and in test [2] were 0.197 µM, 2.97 µM and 9.67 µM, respectively.

With `Nc1ncn([C@@H]2O[C@H](CO)[C@@H](O)[C@H]2O)c(=O)n1` [Azacitidine] (10000 nM), the normalised viability in test [4] worked out at 82.8%; in test [5], 102%; in test [6] it was 102%; in [7], 77.7%; in test [8], 68.4%; in [9], 82%.

In the case of `CC(C)(C)c1cnc(CSc2cnc(NC(=O)C3CCNCC3)s2)o1` [SNS-032], the “EC50, CellTiter-Glo” value in [3] is 0.112 µM; in test [1] it was 0.05 µM; in test [2], 0.036 µM.

In the case of `CC(C)(C)c1cnc(CSc2cnc(NC(=O)C3CCNCC3)s2)o1` [SNS-032] (10000 nM), the normalised viability in test [4] is 21.8%; in test [5], 4.67%; in test [6], 2.06%; in [7], -0.36%; in [8] it was 12.7%; in test [9], 18.6%.

Consider `CC1(C)CCC(CN2CCN(c3ccc(C(=O)NS(=O)(=O)c4ccc(NCC5CCOCC5)c([N+](=O)[O-])c4)c(Oc4cnc5[nH]ccc5c4)c3)CC2)=C(c2ccc(Cl)cc2)C1` [ABT-199], for which the “EC50, CellTiter-Glo” value in test [2] was above 10 µM.

Consider `Cc1sc2c(c1C)C(c1ccc(Cl)cc1)=N[C@@H](CC(=O)OC(C)(C)C)c1nnc(C)n1-2` [(+)JQ1] (10000 nM), for which the normalised viability in test [4] turned out to be 27.6%; in test [5], 68.3%; in test [6], 44.4%; in test [7] it was 1.08%; in test [8], 108%; in test [9], 18.3%.

For `Cc1ccc([N+](=O)[O-])cc1S(=O)(=O)N(C)/N=C/c1cnc2ccc(Br)cn12` [PIK-75], the “EC50, CellTiter-Glo” value in test [3] was found to be 0.0261 µM; in test [1] it was 0.0325 µM; in test [2], 0.0274 µM.

As for `COc1cc2c(cc1O)CC[C@@H]1[C@@H]2CC[C@]2(C)[C@@H](O)CC[C@@H]12` [2-methoxyestradiol], the “EC50, CellTiter-Glo” value in test [3] was found to be 0.573 µM; in test [1] it was 7.46 µM; in test [2] it was 2.8 µM.

On to `CC1(C)CNc2cc(NC(=O)c3cccnc3NCc3ccncc3)ccc21` [Motesanib] (10000 nM), for which the normalised viability in test [4] amounted to 91.8%; in test [5] it was 97.2%; in test [6], 78.2%; in [7], 88.6%; in test [8], 92.2%; in test [9], 69.4%.
